Patent publication US8753691B2, “Antiviral colloidal silver composition” (priority 1999, dated 2014)
In brackets after ≈: the same amount, converted by molar mass. Several values for one entry are separate records, joined by “and”; a condition that tells them apart may be missing. Equal values may be shown once. Read-outs that look alike come from different tables or passages of the source.

How the values were obtained:
[1] = target: Moloney murine leukemia virus reverse transcriptase (MoMuLV) (Moloney murine leukemia virus, UniProt P03355); experiment: Test of reverse transcriptase inhibition; conditions: 3 μl inhibitor; 37° C. 2 hours; AZT at 0.625 microgram/ml
[2] = test system: S. pyogenes; experiment: MIC/MBC broth microdilution; type: cell-based
[3] = test system: S. mutans; experiment: MIC/MBC broth microdilution; type: cell-based
[4] = test system: S gordonii; experiment: MIC/MBC broth microdilution; type: cell-based; conditions: for MIC: read-out: MIC (minimum inhibitory concentration)
[5] = test system: S. pneumoniae; experiment: MIC/MBC broth microdilution; type: cell-based
[6] = test system: S. faecalis; experiment: MIC/MBC broth microdilution; type: cell-based
[7] = test system: S. aureus; experiment: MIC/MBC broth microdilution; type: cell-based
[8] = test system: P. aeruginosa; experiment: MIC/MBC broth microdilution; type: cell-based
[9] = test system: E. coli; experiment: MIC/MBC broth microdilution; type: cell-based
[10] = test system: E. aerogenes; experiment: MIC/MBC broth microdilution; type: cell-based
[11] = test system: S. typhimurium; experiment: MIC/MBC broth microdilution; type: cell-based; conditions: for MBC: read-out: MBC (minimum bactericidal concentration)
[12] = test system: S arizona; experiment: MIC/MBC broth microdilution; type: cell-based; conditions: for MBC: read-out: MBC (minimum bactericidal concentration); for MIC: read-out: MIC (minimum inhibitory concentration)
[13] = test system: S. boydii; experiment: MIC/MBC broth microdilution; type: cell-based; conditions: for MBC: read-out: MBC (minimum bactericidal concentration)
[14] = test system: K. pneumoniae; experiment: MIC/MBC broth microdilution; type: cell-based
[15] = test system: K. oxytoca; experiment: MIC/MBC broth microdilution; type: cell-based
[16] = test system: E. cloacae; experiment: MIC/MBC broth microdilution; type: cell-based
[17] = test system: Pseudomonas aeruginosa ATCC #15442
Procedure: (§1) At 30 second intervals, 0.5 ml of each challenge culture was added to the appropriate dilutions of phenol, agitated, and replaced into the water bath: After the appropriate exposure times of 5, 10, and 15 minutes, a loopful of suspension was removed from the assay tubes and transferred to tubes of letheen broth (LETH).

[18] = test system: Salmonella choleraesuis ATCC #10708; conditions: 5, 10 or 15 min
Procedure: as §1

[19] = test system: Staphylococcus aureus ATCC #6538
Procedure: as §1

Cc1cn([C@H]2C[C@H](N=[N+]=[N-])[C@@H](CO)O2)c(=O)[nH]c1=O [AZT, zidovudine (AZT)]
% Inhibition (reverse transcriptase) [1]: 31.33% and 18.06%

CCN1CCN(C(=O)N[C@@H](C(=O)N[C@@H]2C(=O)N3C(C(=O)O)=C(CSc4nnnn4C)CS[C@H]23)c2ccc(O)cc2)C(=O)C1=O [Cefaperazone]
MBC (minimum bactericidal concentration) [2]: 1.25 ppm | MIC (minimum inhibitory concentration) [2]: 0.313 ppm | MBC (minimum bactericidal concentration) [3]: > 5 ppm | MIC (minimum inhibitory concentration) [3]: 1.25 ppm | MBC (minimum bactericidal concentration) [4]: 1.25/1.25 ppm | MIC (minimum inhibitory concentration) [4]: 1.25/1.25 ppm | MBC (minimum bactericidal concentration) [5]: 0.313/0.313 ppm | MIC (minimum inhibitory concentration) [5]: 0.313/0.313 ppm | MIC (minimum inhibitory concentration) [6]: >5.0 ppm | MBC (minimum bactericidal concentration) [7]: 5.0/5.0 ppm | MIC (minimum inhibitory concentration) [7]: 5.0/5.0 ppm | MBC (minimum bactericidal concentration) [8]: 5.0 ppm | MIC (minimum inhibitory concentration) [8]: 2.5 ppm | MBC (minimum bactericidal concentration) [9]: > 5.0 ppm | MIC (minimum inhibitory concentration) [9]: 0.625 ppm | MBC (minimum bactericidal concentration) [10]: > 5.0 ppm | MIC (minimum inhibitory concentration) [10]: 2.92 ppm | MBC (minimum bactericidal concentration) [11]: 2.5 ppm | MIC (minimum inhibitory concentration) [11]: 1.25 ppm | MBC (minimum bactericidal concentration) [12]: > 5.0 ppm | MIC (minimum inhibitory concentration) [12]: 0.833 ppm | MBC (minimum bactericidal concentration) ([13]; S. boydii): 0.625/0.625 ppm | MIC (minimum inhibitory concentration) ([13]; S. boydii): 0.625/0.625 ppm | MIC (minimum inhibitory concentration) [14]: >5.0 ppm | MBC (minimum bactericidal concentration) [15]: > 5.0 ppm | MIC (minimum inhibitory concentration) [15]: 1.25 ppm

CC[C@H]1OC(=O)[C@H](C)[C@@H](O[C@H]2C[C@@](C)(OC)[C@@H](O)[C@H](C)O2)[C@H](C)[C@@H](O[C@@H]2O[C@H](C)C[C@H](N(C)C)[C@H]2O)[C@](C)(O)C[C@@H](C)C(=O)[C@H](C)[C@@H](O)[C@]1(C)O [Erythromycin]
MIC [4]: 0.005 µg/mL (≈ 0.00681 µM) | MBC [12]: > 5 µg/mL | MBC ([13]; S. boydii): > 5 µg/mL | MIC ([13]; S. boydii, read-out: MIC (minimum inhibitory concentration)): 5 µg/mL (≈ 6.81 µM)

CC1COc2c(N3CCN(C)CC3)c(F)cc3c(=O)c(C(=O)O)cn1c23 (stereo not shown) [Ofloxacin]
MBC ([4]; read-out: MBC (minimum bactericidal concentration)): 5 µg/mL (≈ 13.8 µM) | MIC [4]: 2.5 µg/mL (≈ 6.92 µM) | MBC ([10]; Klebsiella aerogenes, read-out: MBC (minimum bactericidal concentration)): 0.156 µg/mL (≈ 0.432 µM) | MIC ([10]; Klebsiella aerogenes, read-out: MIC (minimum inhibitory concentration)): 0.078 µg/mL (≈ 0.216 µM) | MBC ([11]; Salmonella enterica): 0.156 µg/mL (≈ 0.432 µM) | MIC ([11]; Salmonella enterica, read-out: MIC (minimum inhibitory concentration)): 0.078 µg/mL (≈ 0.216 µM) | MIC [12]: 0.078 µg/mL (≈ 0.216 µM) | MBC ([13]; S. boydii): 0.156 µg/mL (≈ 0.432 µM)

CC1(C)S[C@@H]2[C@H](NC(=O)Cc3ccccc3)C(=O)N2[C@H]1C(=O)O [Penicillin G]
MIC (minimum inhibitory concentration) [2]: >5.0 ppm | MBC (minimum bactericidal concentration) [3]: > 5 ppm | MIC (minimum inhibitory concentration) [3]: 0.521 ppm | MBC (minimum bactericidal concentration) [4]: 0.039 ppm | MIC (minimum inhibitory concentration) [4]: 0.009 ppm | MBC (minimum bactericidal concentration) [5]: 0.019/0.019 ppm | MIC (minimum inhibitory concentration) [5]: 0.019/0.019 ppm | MBC (minimum bactericidal concentration) [6]: 5.0/>5.0 ppm | MIC (minimum inhibitory concentration) [6]: 5.0/>5.0 ppm | MBC (minimum bactericidal concentration) [7]: > 5.0 ppm | MIC (minimum inhibitory concentration) [7]: 2.5 ppm | MBC (minimum bactericidal concentration) [8]: > 5.0 ppm | MIC (minimum inhibitory concentration) [8]: 0.13 ppm | MIC (minimum inhibitory concentration) [9]: >5.0 ppm | MIC (minimum inhibitory concentration) [10]: >5.0 ppm | MIC (minimum inhibitory concentration) [16]: >5.0 ppm | MIC (minimum inhibitory concentration) [11]: >5.0 ppm | MIC (minimum inhibitory concentration) [12]: >5.0 ppm | MIC (minimum inhibitory concentration) [13]: >5.0 ppm | MIC (minimum inhibitory concentration) [14]: >5.0 ppm | MIC (minimum inhibitory concentration) [15]: >5.0 ppm

CN(C)[C@@H]1C(O)=C(C(N)=O)C(=O)[C@@]2(O)C(O)=C3C(=O)c4c(O)cccc4[C@@](C)(O)[C@H]3C[C@@H]12 [Tetracycline]
MBC ([11]; Salmonella enterica): > 5 µg/mL | MBC [12]: > 5 µg/mL | MIC [12]: 0.625 µg/mL (≈ 1.41 µM) | MBC ([13]; S. boydii): > 5 µg/mL | MBC ([15]; Klebsiella oxytoca, read-out: MBC (minimum bactericidal concentration)): > 5 µg/mL

Oc1ccccc1 [phenol]
growth after phenol treatment ([17]; 1:80 phenol, 5 or 10 min): showed growth | growth after phenol treatment ([17]; 1:80 phenol, 15 min): no growth | growth after phenol treatment ([17]; 1:90 phenol, 5, 10 or 15 min): showed growth | growth after phenol treatment ([18]; 1:90 phenol): no growth | growth after phenol treatment ([18]; 1:100 phenol): showed growth | growth after phenol treatment ([19]; 1:60 phenol, 5 or 10 min): showed growth | growth after phenol treatment ([19]; 1:60 phenol, 15 min): no growth | growth after phenol treatment ([19]; 1:70 phenol, 5, 10 or 15 min): showed growth
